Measurements as given in patent publication US6506734B1, “20(S) camptothecin glycoconjugates” (Bayer Aktiengesellschaft, priority 1997, dated 2003).
“And” between values parts separate entries of the source, which are not always exact repeats. Equal entries are not always repeated. Structures can show the parent of a compound that is named as a salt. Where two headings read alike, the source gives them in different places.

Experiments:
B16F10 = test: Growth inhibition test (MTT) for cytotoxic properties, B16F10; settings: read-out: IC50/nM B16F10
Experimental: (§1) The human large intestine cell lines SW 480 and HT 29 (ATCC No. CCL 228 and HBT 38) and the mouse melanoma cell line B16F10 (CRL 6475) were grown in Roux dishes in RPMI 1640 medium with addition of 10% FCS. They were then trypsinized and taken up in RPMI plus 10% FCS to a cell count of 50,000 cells/ml for SW 480 and HT 29 and 20,000 cells for B16F10. 100 μl of cell suspension/well were added to a 96 microwell plate and incubated for 1 day at 37° C. in a CO2 incubator. A further 100 μl of RPMI medium and 1 μl of DMSO containing the test substances were then added. The growth was checked after day 6. To do this, 25 μl of MTT solution (3-(4,5-dimethylthiazol-2-yl)-2,5-diphenyltetrazolium bromide) having a starting concentration of 5 mg/ml of H2O were added to each microwell. Incubation was carried out for 5 hours in a CO2 incubator at 37° C. The medium was then aspirated and 100 μl of i-propanol/well were added. After shaking for 30 min with 100 μl of H2O, the extinction was measured at 595 nm using a multiplate reader (Bio.) 3550 UV.

HT 29 = test: Growth inhibition test (MTT) for cytotoxic properties, HT 29; settings: read-out: IC50/nM HT 29
Experimental: as §1

SW 480 = test: Growth inhibition test (MTT) for cytotoxic properties, SW 480; settings: read-out: IC50/nM SW 480
Experimental: as §1

[1] = tested on: mouse bone marrow stem cells; test: Inhibition of the CSF-induced proliferation of mouse bone marrow stem cells; settings: recombinant murine GM-CSF, 7 days, colony count
Experimental: Bone marrow cells were washed out of mice femurs. 10^5 cells were incubated at 37° C. and 7% CO2 in McCoy 5A medium (0.3% agar) together with recombinant murine GM-CSF (Genzyme; stem cell colony formation) and the substances (10^−4 to 100 μg/ml). 7 days later, the colonies (<50 cells) and clusters (17-50 cells) were counted.

[2] = tested on: large-cell human lung tumour xenograft LXFL 529; test: In vivo inhibition of tumour growth in the nude mouse model; settings: for Survival time: LXFL 529 nude mice, individual animals; for therapeutic efficacy (tumour remission): maximum tolerable dose (MTD) and ½ MTD, LXFL 529
Experimental: For all in vivo experiments for investigation of the inhibition of tumour growth, athymic nude mice (NMRI nu/nu strain) were used. The selected large-cell lung carcinoma LXFL 529 was grown by serial passage in nude mice. The human origin of the tumour was confirmed by isoenzymatic and immunohistochemical methods.
The tumour was implanted subcutaneously into both flanks of small nu/nu nude mice 6 to 8 weeks old. […] The mice were assigned to the treatment group and the control group (5 mice per group with 8-10 assessable tumours) by randomization.
The size of the tumours was measured in two dimensions by means of a slide gauge. The tumour volume, which correlated well with the cell count, was then used for all evaluations. The volume was calculated according to the formula “length×breadth×breadth/2” ([a×b^2]/2, a and b represent two diameters at right angles).
The values of the relative tumour volume (RTV) were calculated for each individual tumour by dividing the tumour size on day X with the tumour size on day 0 (at the time of randomization). The mean values of the RTV were then used for the further evaluation.
The inhibition of the tumour volume (relative tumour volume of the test group/control group×100, T/C in %) was the final measured value.
The administration of the compounds was carried out intravenously (i.v.), for example on day 0, 1 and 2 after randomization, the total dose per day being split over 2 administrations.

[3] = B16F10 cells, MTT, growth checked after day 6
[4] = HT 29 cells, MTT, growth checked after day 6
[5] = SW 480 cells, MTT, growth checked after day 6
[6] = 16 mg/kg/day i.v., LXFL 529, optimum on day 28

Row | SMILES | IC50 (B16F10; Mus musculus, B16-F10, 144 h) [nM] | IC50 (HT 29; Homo sapiens, HT-29, 144 h) [nM] | IC50 (SW 480; Homo sapiens, SW480, 144 h) [nM] | other results
1 | CC[C@@]1(O)C(=O)OCc2c1cc1n(c2=O)Cc2cc3ccccc3nc2-1 [20(S)-Camptothecin, reference compound] | – | – | – | IC50 (B16F10; [3]): 20 nM; IC50 (HT 29; [4]): 5 nM; IC50 (SW 480; [5]): 10 nM; Inhibition of the CSF-induced proliferation of mouse bone marrow stem cells IC50 [1]: 0.05 ng/mL
2 | CC[C@@]1(OC(=O)C(CC(C)C)NC(=O)[C@H](CCCCN)NC(=S)Nc2ccc(OC3O[C@@H](C)[C@@H](O)[C@@H](OC)[C@@H]3O)cc2)C(=O)OCc2c1cc1n(c2=O)Cc2cc3ccccc3nc2-1 (stereo partly drawn) [Example 1, 20(S)-20-O-{N^α-[O-(3-O-Methyl-β-L-fucopyranosyl)-4-hydroxy-phenylamino-thiocarbonyl]-L-lysyl-L/D-leucyl}-camptothecin, hydrochloride] | 200 | 40 | 70 | opt. T/C ([2]; 8 mg/kg/day i.v., LXFL 529, optimum on day 14): 0%; Survival time ([2]; 8 mg/kg/day i.v., hydrochloride): 0 days and >28 days (4×); Relative body weight on day 7 [% of day 0] ([2]; 8 mg/kg/day i.v.): 95 % of day 0; opt. T/C [2, 6]: 0%; Survival time ([2]; 16 mg/kg/day i.v.): >28 days; Relative body weight on day 7 [% of day 0] ([2]; 16 mg/kg/day i.v.): 95 % of day 0; tumour remission (FIG. 1) ([2]; dose range from 16 to 8 mg/kg, therapy schedule day 1-3 i.v., further experiment): long-lasting complete remission; therapeutic efficacy (tumour remission) [2]: complete to marked tumour remission
3 | CCC1(OC(=O)C(NC(=O)[C@H](Cc2c[nH]cn2)NC(=S)Nc2ccc(OC3OC(C)C(O)C(OC)C3O)cc2)C(C)C)C(=O)OCc2c1cc1n(c2=O)Cc2cc3ccccc3nc2-1.Cl (stereo partly drawn) [Example 2, 20(S)-20-O-{N-[O-(3-O-Methyl-β-L-fucopyranosyl)-4-hydroxy-phenylamino-thiocarbonyl]-L-histidyl-L/D-valyl}-camptothecin, hydrochloride] | 300 | 40 | 100 | opt. T/C [2, 6]: 3.3%; Survival time ([2]; 16 mg/kg/day i.v.): >28 days; Relative body weight on day 7 [% of day 0] ([2]; 16 mg/kg/day i.v.): 103 % of day 0; opt. T/C ([2]; 32 mg/kg/day i.v., LXFL 529, optimum on day 21): 0%; Survival time ([2]; 32 mg/kg/day i.v., hydrochloride): >28 days (3×) and 20 days and 1 days; Relative body weight on day 7 [% of day 0] ([2]; 32 mg/kg/day i.v.): 98 % of day 0; therapeutic efficacy (tumour remission) [2]: complete to marked tumour remission
4 | CC[C@@]1(OC(=O)[C@@H](CC(C)C)NC(=O)[C@@H](CCCCN)NC(=S)Nc2ccc(OC3O[C@@H](C)[C@@H](O)[C@@H](OC)[C@@H]3O)cc2)C(=O)OCc2c1cc1n(c2=O)Cc2cc3ccccc3nc2-1 (stereo partly drawn) [Example 3, 20(S)-20-O-{N^α-[O-(3-O-Methyl-β-L-fucopyranosyl)-4-hydroxy-phenylamino-thiocarbonyl]-D-lysyl-D-leucyl}-camptothecin, hydrochloride] | 500 | 20 | 100 | –
5 | CC[C@@]1(OC(=O)[C@@H](CC(C)C)NC(=O)[C@H](CCCN)NC(=S)Nc2ccc(OC3O[C@@H](C)[C@@H](O)[C@@H](OC)[C@@H]3O)cc2)C(=O)OCc2c1cc1n(c2=O)Cc2cc3ccccc3nc2-1 (stereo partly drawn) [Example 4, 20(S)-20-O-{N^α-[O-(3-O-Methyl-β-L-fucopyranosyl)-4-hydroxy-phenylamino-thiocarbonyl]-L-ornithyl-D-leucyl}-camptothecin, hydrochloride] | 500 | 20 | 100 | –
6 | CC[C@@]1(OC(=O)[C@@H](CC(C)C)NC(=O)[C@H](CCCNC(=N)N)NC(=S)Nc2ccc(OC3O[C@@H](C)[C@@H](O)[C@@H](OC)[C@@H]3O)cc2)C(=O)OCc2c1cc1n(c2=O)Cc2cc3ccccc3nc2-1 (stereo partly drawn) [Example 5, 20(S)-20-O-{N^α-[O-(3-O-Methyl-β-L-fucopyranosyl)-4-hydroxy-phenylamino-thiocarbonyl]-L-arginyl-D-leucyl}-camptothecin] | 200 | 50 | 80 | –
7 | CC[C@@]1(OC(=O)[C@@H](CC(C)C)NC(=O)[C@H](CCCCN)NC(=S)Nc2ccc(OC3O[C@@H](C)[C@@H](O)[C@@H](OC)[C@@H]3O)cc2)C(=O)OCc2c1cc1n(c2=O)Cc2cc3ccccc3nc2-1 (stereo partly drawn) [Example 6, 20(S)-20-O-{N^α-[O-(3-O-Methyl-β-L-fuopyranosyl)-4-hydroxy-phenylamino-thiocarbonyl]-L-lysyl-D-leucyl}-camptothecin, hydrochloride] | 300 | 30 | 60 | –
8 | CC[C@@]1(OC(=O)[C@H](CC(C)C)NC(=O)[C@H](CCCCN)NC(=S)Nc2ccc(OC3O[C@@H](C)[C@@H](O)[C@@H](OC)[C@@H]3O)cc2)C(=O)OCc2c1cc1n(c2=O)Cc2cc3ccccc3nc2-1 (stereo partly drawn) [Example 7, 20(S)-20-O-{N^α-O-(3-O-Methyl-β-L-fucopyranosyl)-4-hydroxy-phenylamino-thiocarbonyl]-L-lysyl-L-leucyl}-camptothecin, hydrochloride] | 20 | 30 | 80 | –
9 | CC[C@@]1(OC(=O)[C@@H](NC(=O)[C@H](CCCCN)NC(=S)Nc2ccc(OC3O[C@@H](C)[C@@H](O)[C@@H](OC)[C@@H]3O)cc2)C(C)C)C(=O)OCc2c1cc1n(c2=O)Cc2cc3ccccc3nc2-1 (stereo partly drawn) [Example 8, 20(S)-20-O-{N^α-[-(3-O-Methyl-β-L-fucopyranosyl)-4-hydroxy-phenylamino-thiocarbonyl]-L-lysyl-L-valyl}-camptothecin, hydrochloride] | 800 | 100 | 200 | –
10 | CC[C@@]1(OC(=O)[C@@H](NC(=O)[C@H](Cc2cnc[nH]2)NC(=S)Nc2ccc(O[C@H]3O[C@@H](C)[C@@H](O)[C@@H](OC)[C@@H]3O)cc2)C(C)C)C(=O)OCc2c1cc1n(c2=O)Cc2cc3ccccc3nc2-1.Cl [Example 9, 20(S)-20-O-{N^α-[O-(3-O-Methyl-β-L-fucopyranosyl)-4-hydroxy-phenylamino-thiocarbonyl]-L-histidyl-L-valyl}-camptothecin, hydrochloride] | – | – | – | IC50 (B16F10; [3]): 400 nM; IC50 (HT 29; [4]): 70 nM; IC50 (SW 480; [5]): 200 nM; Inhibition of the CSF-induced proliferation of mouse bone marrow stem cells IC50 [1]: 15 ng/mL
11 | CC[C@@]1(OC(=O)[C@H](CC(C)C)NC(=O)[C@H](CCCNC(=N)N)NC(=S)Nc2ccc(OC3O[C@@H](C)[C@@H](O)[C@@H](OC)[C@@H]3O)cc2)C(=O)OCc2c1cc1n(c2=O)Cc2cc3ccccc3nc2-1 (stereo partly drawn) [Example 10, 20(S)-20-O-{N^α-[O-(3-O-Methyl-β-L-fucopyranosyl)-4-hydrdxy-phenylamino-thiocarbonyl]-L-arginyl-L-leucyl}-camptothecin] | 300 | 50 | 100 | –
